Measurements reported in patent US9580444B2, “Polycyclic pyrazolinone derivative and herbicide comprising same as effective component thereof” (priority 2013, dated 2017).

Key:
Assay type in all cases: in vivo
[1] = tested on: Abutilon theophrasti (velvetleaf); test: Test Example-3: herbicidal effect by a treatment before weeds are generated under upland field conditions; settings: upland soil treatment before emergence, about 21 days after treatment, score 0-5
Description: (§1) Using the formulation prepared according to the methods described above, the herbicidal effect of the bicyclic pyrazolinone derivative of the invention according to the methods shown in Test Examples below was examined. The herbicidal effect with respect to the test weeds or the phytotoxicity with respect to the test crops was examined according to the following criteria, and evaluated in six stage scores of 0 to 5. A vat having an area of 81 cm^2 and a depth of 3.5 cm was filled with upland soil, then, seeds of Ipomoea purpurea (tall morning glory), Amaranthus viridis (green amaranthus), Abutilon theophrasti (velvetleaf), Chenopodium album (common lambsquarters), and corn were seeded thereto, and the seeds were covered with soil of about 0.5 cm. Next day, a wettable powder or an emulsifiable concentrate of the compound of the present invention prepared according to Formulation Example was diluted, and a spray treatment was uniformly performed on the covered oil so as to be a predetermined dosage. The herbicidal effect with respect to the test weeds and the phytotoxicity with respect to corn about 21 days after the treatment were evaluated according to the evaluation criteria in six stages of 0 to 5 described above.

[2] = tested on: Chenopodium album (common lambsquarters); test: as above; settings: upland soil treatment before emergence, about 21 days after treatment, score 0-5
Description: as §1

[3] = tested on: Amaranthus viridis (green amaranthus); test: as above; settings: upland soil treatment before emergence, about 21 days after treatment, score 0-5
Description: as §1

[4] = tested on: Ipomoea purpurea (tall morning glory); test: as above; settings: upland soil treatment before emergence, about 21 days after treatment, score 0-5
Description: as §1

[5] = tested on: Eleocharis acicularis (needle spikerush); test: Test Example-1: herbicidal effect by a treatment before weeds are generated under submerged conditions; settings: 500 g a.i/ha, pre-emergence treatment, about 15 days after treatment, score 0-5
Outline: (§2)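 This is a pre-emergence test under flooding: compound formulations were applied into the water at a set dosage on the day weeds were sown in puddled paddy soil. Weed control was rated on a six-step 0–5 scale roughly 15 days later.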

[6] = tested on: Cyperus difformis (smallflower umbrella plant); test: as above; settings: 500 g a.i/ha, pre-emergence treatment, about 15 days after treatment, score 0-5
Outline: as §2

[7] = tested on: Monochoria vaginalis (monochoria); test: as above; settings: 500 g a.i/ha, pre-emergence treatment, about 15 days after treatment, score 0-5
Outline: as §2

[8] = tested on: Scirpus juncoides (bulrush); test: as above; settings: 500 g a.i/ha, pre-emergence treatment, about 15 days after treatment, score 0-5
Outline: as §2

[9] = tested on: other annual broad leaf weeds (Lindernia procumbens, Rotala indica, Elatine triandra); test: as above; settings: 500 g a.i/ha, pre-emergence treatment, about 15 days after treatment, score 0-5
Outline: as §2

[10] = tested on: Echinochloa oryzicola (barnyard grass); test: as above; settings: 500 g a.i/ha, pre-emergence treatment, about 15 days after treatment, score 0-5
Outline: as §2

[11] = tested on: corn; test: Test Example-3: phytotoxicity by a treatment before weeds are generated under upland field conditions; settings: upland soil treatment before emergence, about 21 days after treatment, score 0-5
Description: as §1

[12] = tested on: corn; test: Test Example-2: phytotoxicity by a soil treatment before weeds are generated under upland field conditions; settings: application amount 500 g a.i/ha, soil spray treatment before weeds are generated, about 21 days after the treatment, score 0 to 5
Outline: (§3)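 Pre-emergence soil treatment: seeds sown in upland soil and covered with about 0.5 cm soil were sprayed the next day with diluted wettable powder or emulsifiable concentrate at a predetermined dosage. Weed control and corn injury were scored on a 0–5 scale about 21 days after treatment.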

[13] = tested on: Chenopodium album (common lambsquarters); test: Test Example-2: herbicidal effect by a soil treatment before weeds are generated under upland field conditions; settings: application amount 500 g a.i/ha, soil spray treatment before weeds are generated, about 21 days after the treatment, score 0 to 5
Outline: as §3

[14] = tested on: Amaranthus viridis (green amaranthus); test: as above; settings: application amount 500 g a.i/ha, soil spray treatment before weeds are generated, about 21 days after the treatment, score 0 to 5
Outline: as §3

[15] = tested on: corn; test: Test Example-4: phytotoxicity by a foliage treatment after weeds are generated under upland field conditions; settings: 500 g a.i/ha, foliage treatment after emergence, about 14 days after treatment, score 0-5
Outline: (§4)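 Post-emergence foliar test: wettable powder or emulsifiable concentrate was diluted and sprayed at 4000 L water/ha at a set dosage onto plants raised 14 days from seed in upland soil. Herbicidal effect and corn injury were rated 0–5 roughly 14 days later.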

[16] = tested on: Abutilon theophrasti (velvetleaf); test: Test Example-4: herbicidal effect by a foliage treatment after weeds are generated under upland field conditions; settings: 500 g a.i/ha, foliage treatment after emergence, about 14 days after treatment, score 0-5
Outline: as §4

[17] = tested on: Chenopodium album (common lambsquarters); test: as above; settings: 500 g a.i/ha, foliage treatment after emergence, about 14 days after treatment, score 0-5
Outline: as §4

[18] = tested on: Amaranthus viridis (green amaranthus); test: as above; settings: 500 g a.i/ha, foliage treatment after emergence, about 14 days after treatment, score 0-5
Outline: as §4

[19] = tested on: corn; test: Test Example-5: phytotoxicity by a foliage treatment after weeds are generated under upland field conditions; settings: foliage treatment after emergence, about 14 days after treatment, score 0-5
Description: as §1, with “While watering was suitably performed on there, the seeds were grown for 14 days. A” for “Next day, a”, “foliage portion of the plant” for “covered oil”, “dosage in the amount of water of 4000 L per hectare.” for “dosage.”, “14” for “21”

[20] = tested on: Abutilon theophrasti (velvetleaf); test: Test Example-5: herbicidal effect by a foliage treatment after weeds are generated under upland field conditions; settings: foliage treatment after emergence, about 14 days after treatment, score 0-5
Description: as §1, with “While watering was suitably performed on there, the seeds were grown for 14 days. A” for “Next day, a”, “foliage portion of the plant” for “covered oil”, “dosage in the amount of water of 4000 L per hectare.” for “dosage.”, “14” for “21”

[21] = tested on: Chenopodium album (common lambsquarters); test: as above; settings: foliage treatment after emergence, about 14 days after treatment, score 0-5
Description: as §1, with “While watering was suitably performed on there, the seeds were grown for 14 days. A” for “Next day, a”, “foliage portion of the plant” for “covered oil”, “dosage in the amount of water of 4000 L per hectare.” for “dosage.”, “14” for “21”

[22] = tested on: Amaranthus viridis (green amaranthus); test: as above; settings: foliage treatment after emergence, about 14 days after treatment, score 0-5
Description: as §1, with “While watering was suitably performed on there, the seeds were grown for 14 days. A” for “Next day, a”, “foliage portion of the plant” for “covered oil”, “dosage in the amount of water of 4000 L per hectare.” for “dosage.”, “14” for “21”

[23] = tested on: Ipomoea purpurea (tall morning glory); test: as above; settings: foliage treatment after emergence, about 14 days after treatment, score 0-5
Description: as §1, with “While watering was suitably performed on there, the seeds were grown for 14 days. A” for “Next day, a”, “foliage portion of the plant” for “covered oil”, “dosage in the amount of water of 4000 L per hectare.” for “dosage.”, “14” for “21”

| Compound | Herbicidal effect Abutilon theophrast ([1]; 50 g a.i/ha) | Herbicidal effect Chenopodium album ([2]; 50 g a.i/ha) | Herbicidal effect Amaranthus viridis ([3]; 50 g a.i/ha) | Herbicidal effect Ipomoea purpurea ([4]; 50 g a.i/ha) | Phytotoxicity Corn ([11]; 50 g a.i/ha) | Phytotoxicity Corn [15] | Herbicidal effect Abutilon theophrast [16] | Herbicidal effect Chenopodium album [17] | Herbicidal effect Amaranthus viridis [18] | Phytotoxicity Corn ([19]; 12.5 g a.i/ha) | Herbicidal effect Abutilon theophrasti ([20]; 12.5 g a.i/ha) | Herbicidal effect Chenopodium album ([21]; 12.5 g a.i/ha) | Herbicidal effect Amaranthus viridis ([22]; 12.5 g a.i/ha) | Herbicidal effect Ipomoea purpurea ([23]; 12.5 g a.i/ha) | other results |
| --- | --- | --- | --- | --- | --- | --- | --- | --- | --- | --- | --- | --- | --- | --- | --- |
| C#CCOc1cc(-c2c(Cl)n3n(c2=O)CCOCC3)c(Cl)cc1Cl [Example 1-306] | 3 (Herbicidal effect/phytotoxicity was 50% to 70%) | 5 (Herbicidal effect/phytotoxicity was 90% or greater) | 5 (Herbicidal effect/phytotoxicity was 90% or greater) | 4 (Herbicidal effect/phytotoxicity was 70% to 90%) | 0 (Herbicidal effect/phytotoxicity was 0% to 10%) | 1 (Herbicidal effect/phytotoxicity was 10% to 30%) | 5 (Herbicidal effect/phytotoxicity was 90% or greater) | 5 (Herbicidal effect/phytotoxicity was 90% or greater) | 5 (Herbicidal effect/phytotoxicity was 90% or greater) | 0 (Herbicidal effect/phytotoxicity was 0% to 10%) | 5 (Herbicidal effect/phytotoxicity was 90% or greater) | 5 (Herbicidal effect/phytotoxicity was 90% or greater) | 5 (Herbicidal effect/phytotoxicity was 90% or greater) | 5 (Herbicidal effect/phytotoxicity was 90% or greater) | Herbicidal effect Abutilon theophrast ([1]; 100 g a.i/ha): 4 (Herbicidal effect/phytotoxicity was 70% to 90%); Herbicidal effect Chenopodium album ([2]; 100 g a.i/ha): 5 (Herbicidal effect/phytotoxicity was 90% or greater); Herbicidal effect Amaranthus viridis ([3]; 100 g a.i/ha): 5 (Herbicidal effect/phytotoxicity was 90% or greater); Herbicidal effect Ipomoea purpurea ([4]; 100 g a.i/ha): 5 (Herbicidal effect/phytotoxicity was 90% or greater); Herbicidal effect Eleocharis acicularis [5]: 5 (Herbicidal effect/phytotoxicity was 90% or greater); Herbicidal effect Cyperus difformis [6]: 5 (Herbicidal effect/phytotoxicity was 90% or greater); Herbicidal effect Monochoria vaginalis [7]: 5 (Herbicidal effect/phytotoxicity was 90% or greater); Herbicidal effect Scirpus juncoides [8]: 5 (Herbicidal effect/phytotoxicity was 90% or greater); Herbicidal effect Broadleaf weed [9]: 5 (Herbicidal effect/phytotoxicity was 90% or greater); Herbicidal effect Echinochloa oryzicola [10]: 5 (Herbicidal effect/phytotoxicity was 90% or greater); Phytotoxicity Corn ([11]; 100 g a.i/ha): 1 (Herbicidal effect/phytotoxicity was 10% to 30%); Phytotoxicity Corn [12]: 1 (Herbicidal effect/phytotoxicity was 10% to 30%); Herbicidal effect Chenopodium album [13]: 5 (Herbicidal effect/phytotoxicity was 90% or greater); Herbicidal effect Amaranthus viridis [14]: 5 (Herbicidal effect/phytotoxicity was 90% or greater); Phytotoxicity Corn ([19]; 25 g a.i/ha): 0 (Herbicidal effect/phytotoxicity was 0% to 10%); Herbicidal effect Abutilon theophrasti ([20]; 25 g a.i/ha): 5 (Herbicidal effect/phytotoxicity was 90% or greater); Herbicidal effect Chenopodium album ([21]; 25 g a.i/ha): 5 (Herbicidal effect/phytotoxicity was 90% or greater); Herbicidal effect Amaranthus viridis ([22]; 25 g a.i/ha): 5 (Herbicidal effect/phytotoxicity was 90% or greater); Herbicidal effect Ipomoea purpurea ([23]; 25 g a.i/ha): 5 (Herbicidal effect/phytotoxicity was 90% or greater) |
| COC(=O)C=C(COc1cc(-c2c(Cl)n3n(c2=O)CCOCC3)c(F)cc1Cl)OC (mixture of isomers) [Example 2-3] | 5 (Herbicidal effect/phytotoxicity was 90% or greater) | 4 (Herbicidal effect/phytotoxicity was 70% to 90%) | 5 (Herbicidal effect/phytotoxicity was 90% or greater) | 2 (Herbicidal effect/phytotoxicity was 30% to 50%) | 0 (Herbicidal effect/phytotoxicity was 0% to 10%) | 1 (Herbicidal effect/phytotoxicity was 10% to 30%) | 5 (Herbicidal effect/phytotoxicity was 90% or greater) | 5 (Herbicidal effect/phytotoxicity was 90% or greater) | 5 (Herbicidal effect/phytotoxicity was 90% or greater) | 0 (Herbicidal effect/phytotoxicity was 0% to 10%) | 5 (Herbicidal effect/phytotoxicity was 90% or greater) | 5 (Herbicidal effect/phytotoxicity was 90% or greater) | 5 (Herbicidal effect/phytotoxicity was 90% or greater) | 5 (Herbicidal effect/phytotoxicity was 90% or greater) | – |
